Here are results for four compounds from US20120015812A1, “Mixtures of strobilurins with triexapac-ethyl” (BASF SE, priority 2003, published 2012).

Assay [1] has as its system soybean plants (cv. “Delta Pine”). Nature of the assay: Reduction of ethylene formation in leaves of soybean plants (gas chromatography). In kind it is in vivo. The settings on record: for Ethylene Evolution per Unit Leaf Weight [% of Control]: greenhouse, leaf spray 750 l/ha, 24 hours after treatment, shoots wilted 10 min, incubated 60 min, g/ha of ai: Co++ 40, pyraclostrobin 100, salicylic acid 500. How it is done: Soybean plants were raised under greenhouse conditions with two plants each per 12-cm pot. Spray treatments of the leaves were carried out with a volume of liquid of 750 l/ha when the plants had developed one to two trifoliate leaves. 24 hours after treatment, the shoots of the soybean plants were dissected above the cotyledons and wilted for 10 minutes under laboratory conditions. Shoots representing a distinct treatment were incubated for 60 minutes under laboratory conditions in a 100-ml Erlenmeyer flask sealed with a rubber cap. Thereafter, gas samples were taken and analyzed for their ethylene content by gas chromatography.
Reduction of ethylene formation in leaves of soybean plants (cv. “Delta Pine”)

Assay [2] deals with soybeans (cv. “Embrapa 48”). Nature of the assay: Yield improvement of soybeans naturally infected with Phakopsora pachyrhizi. In kind it is in vivo, soybean. The settings on record: as in Example 3; pyraclostrobin 112.5 g/ha, Co++ 29 g/ha, alone or combined. From the text: Seeds of soybean cv. “Embrapa 48” were planted and grown under standard conditions with adequate supply of water and nutrients. Infection with Phakopsora pachyrhizi occurred naturally. The active ingredients have been applied twice, 62 and 68 days after seeding.
Yield improvement of soybeans (cv. “Embrapa 48)

Assay [3] has as its system Phakopsora pachyrhizi. Nature of the assay: Spray treatment of soybeans preinfected with Phakopsora pachyrhizi: infection by pathogen. In kind it is in vivo. The settings on record: soybeans cv. RS10, 8-12% preinfection, spray application, 8 days after treatment; 133 g/ha pyraclostrobin. How it is done: (§1) During fruit formation, soybeans of the cultivar RS10 with 8-12% preinfection by Phakopsora pachyrhizi were treated by spray application using customary sprayers with a mixture of 133 g/ha of pyraclostrobin, 80 g/ha of CoCl2×6 H2O(=20 g/ha of cobalt) and 100 g/ha of prohexadione-Ca. Entirely untreated plants and plants treated with 133 g/ha of pyraclostrobin were used for comparison.

In assay [4] the test system is soybeans of the cultivar RS10. Kind of assay: Spray treatment of rust-preinfected soybeans: leaf drop and yield. The format is in vivo, soybean. The settings on record: soybeans cv. RS10, 8-12% preinfection by Phakopsora pachyrhizi, 8 days after treatment; pyraclostrobin 133 g/ha alone or with 80 g/ha CoCl2×6 H2O and 100 g/ha prohexadione-Ca. How it is done:
as §1

On to `O.O.O.O.O.O.[Cl-].[Cl-].[Co+2]` [CoCl2 × 6 H2O, CoCl2×6 H2O], for which, in assay [1], the “Ethylene Evolution per Unit Leaf Weight [% of Control]” value is on record as 41 % of Control.

On to `[Co+2]` [Co^++], for which the “seed yield improvement above the control” value in assay [2] stood at 22%. Regarding `O=C(O)c1ccccc1O` [Salicylic Acid], the “Ethylene Evolution per Unit Leaf Weight [% of Control]” value in assay [1] is given as 97 % of Control. Regarding `COC(=O)N(OC)c1ccccc1COc1ccn(-c2ccc(Cl)cc2)n1` [pyraclostrobin, methyl N-{2-[1-(4-chlorophenyl)-1H-pyrazol-3-yloxymethyl]phenyl}(N-methoxy)carbamate], the “seed yield improvement above the control” value in assay [2] was 24%. In addition, the infection by pathogen result in assay [3] is given as “less infection by pathogen than the entirely untreated plants”. Besides, the “ethylene formation in drought-stressed soybean leaves” value in assay [1] (summary in words of Example 2) is recorded as “inhibits ethylene formation”. In assay [4], the leaf drop result is listed as “considerable leaf drop”.
